{"source": "PubChem BioAssay AID1259407", "about": "(Chemical Carcinogenesis Research Information System (CCRIS), 2018)", "tested_on": "CCRIS mutagenicity, Ames/micronucleus/aberration tests", "assay": "CCRIS mutagenicity studies", "key": {"[1]": {"details": "Test System: AMES SALMONELLA TYPHIMURIUM, Strain/Indicator: TA97, Metabolic Activation: HAMSTER, LIVER, S-9, AROCLOR 1254 (10 OR 30%), Method: PREINCUBATION"}, "[2]": {"details": "Test System: AMES SALMONELLA TYPHIMURIUM, Strain/Indicator: TA97, Metabolic Activation: NONE, Method: PREINCUBATION"}, "[3]": {"details": "Test System: AMES SALMONELLA TYPHIMURIUM, Strain/Indicator: TA97, Metabolic Activation: RAT, LIVER, S-9, AROCLOR 1254 (10 OR 30%), Method: PREINCUBATION"}, "[4]": {"details": "Test System: AMES SALMONELLA TYPHIMURIUM, Strain/Indicator: TA98, Metabolic Activation: HAMSTER, LIVER, S-9, AROCLOR 1254 (10 OR 30%), Method: PREINCUBATION"}, "[5]": {"details": "Test System: AMES SALMONELLA TYPHIMURIUM, Strain/Indicator: TA98, Metabolic Activation: NONE, Method: PREINCUBATION"}, "[6]": {"details": "Test System: AMES SALMONELLA TYPHIMURIUM, Strain/Indicator: TA98, Metabolic Activation: RAT, LIVER, S-9, AROCLOR 1254 (10 OR 30%), Method: PREINCUBATION"}, "[7]": {"details": "Test System: AMES SALMONELLA TYPHIMURIUM, Strain/Indicator: TA100, Metabolic Activation: NONE, Method: PREINCUBATION"}, "[8]": {"details": "Test System: AMES SALMONELLA TYPHIMURIUM, Strain/Indicator: TA100, Metabolic Activation: RAT, LIVER, S-9, AROCLOR 1254 (10 OR 30%), Method: PREINCUBATION"}, "[9]": {"details": "Test System: AMES SALMONELLA TYPHIMURIUM, Strain/Indicator: TA1535, Metabolic Activation: HAMSTER, LIVER, S-9, AROCLOR 1254 (10 OR 30%), Method: PREINCUBATION"}, "[10]": {"details": "Test System: AMES SALMONELLA TYPHIMURIUM, Strain/Indicator: TA1535, Metabolic Activation: NONE, Method: PREINCUBATION"}, "[11]": {"details": "Test System: AMES SALMONELLA TYPHIMURIUM, Strain/Indicator: TA1535, Metabolic Activation: RAT, LIVER, S-9, AROCLOR 1254 (10 OR 30%), Method: PREINCUBATION"}, "[12]": {"details": "Test System: AMES SALMONELLA TYPHIMURIUM, Strain/Indicator: TA100, Metabolic Activation: NONE, Method: STANDARD PLATE"}, "[13]": {"details": "Test System: AMES SALMONELLA TYPHIMURIUM, Strain/Indicator: TA98, Metabolic Activation: NONE, Method: STANDARD PLATE"}, "[14]": {"details": "Test System: AMES SALMONELLA TYPHIMURIUM, Strain/Indicator: TA100, Metabolic Activation: S-9, Method: STANDARD PLATE"}}, "note": "Activity calls are given as the source filed them. The rule behind the calls is not given here."}
{"smiles": "OCCCCO", "values": [{"measurement": "mutagenic call", "setting": "[1]", "result": "inactive; negative"}, {"measurement": "mutagenic call", "setting": "[2]", "result": "inactive; negative"}, {"measurement": "mutagenic call", "setting": "[3]", "result": "inactive; negative"}, {"measurement": "mutagenic call", "setting": "[4]", "result": "inactive; negative"}, {"measurement": "mutagenic call", "setting": "[5]", "result": "inactive; negative"}, {"measurement": "mutagenic call", "setting": "[6]", "result": "inactive; negative"}, {"measurement": "mutagenic call", "setting": "Test System: AMES SALMONELLA TYPHIMURIUM, Strain/Indicator: TA100, Metabolic Activation: HAMSTER, LIVER, S-9, AROCLOR 1254 (10%), Method: PREINCUBATION", "result": "inactive; negative"}, {"measurement": "mutagenic call", "setting": "Test System: AMES SALMONELLA TYPHIMURIUM, Strain/Indicator: TA100, Metabolic Activation: HAMSTER, LIVER, S-9, AROCLOR 1254 (30%), Method: PREINCUBATION", "result": "inactive; negative"}, {"measurement": "mutagenic call", "setting": "[7]", "result": "inactive; negative"}, {"measurement": "mutagenic call", "setting": "[8]", "result": "inactive; negative"}, {"measurement": "mutagenic call", "setting": "[9]", "result": "inactive; negative"}, {"measurement": "mutagenic call", "setting": "[10]", "result": "inactive; negative"}, {"measurement": "mutagenic call", "setting": "[11]", "result": "inactive; negative"}]}
{"smiles": "Cc1cc(C)c(CN2C3c4ccccc4-c4ccccc4C32)c(C)c1", "note": "(stereo unspecified)", "values": [{"measurement": "mutagenic call", "setting": "[12]", "result": "active; positive"}]}
{"smiles": "Cc1ccc(/C=C/c2ccc(N)cc2)cc1", "values": [{"measurement": "mutagenic call", "setting": "Test System: AMES SALMONELLA TYPHIMURIUM, Strain/Indicator: TA98(1,8-DNP6), Metabolic Activation: NONE, Method: STANDARD PLATE", "result": "inactive; negative"}, {"measurement": "mutagenic call", "setting": "Test System: AMES SALMONELLA TYPHIMURIUM, Strain/Indicator: TA98(1,8-DNP6), Metabolic Activation: S-9, Method: STANDARD PLATE", "result": "active; positive"}, {"measurement": "mutagenic call", "setting": "[13]", "result": "inactive; negative"}, {"measurement": "mutagenic call", "setting": "Test System: AMES SALMONELLA TYPHIMURIUM, Strain/Indicator: TA98, Metabolic Activation: RAT LIVER S9, AROCHLOR, Method: STANDARD PLATE", "result": "active; positive"}, {"measurement": "mutagenic call", "setting": "Test System: AMES SALMONELLA TYPHIMURIUM, Strain/Indicator: TA98, Metabolic Activation: S-9, Method: STANDARD PLATE", "result": "active; positive"}, {"measurement": "mutagenic call", "setting": "[12]", "result": "inactive; negative"}, {"measurement": "mutagenic call", "setting": "Test System: AMES SALMONELLA TYPHIMURIUM, Strain/Indicator: TA100, Metabolic Activation: RAT, LIVER, S9, AROCLOR, Method: STANDARD PLATE", "result": "active; positive"}, {"measurement": "mutagenic call", "setting": "[14]", "result": "active; positive"}]}
{"smiles": "ClCc1ccc(Br)cc1", "values": [{"measurement": "mutagenic call", "setting": "[12]", "result": "inactive; negative"}]}
{"smiles": "CCCCN(N=O)C(=O)N(C)C", "values": [{"measurement": "mutagenic call", "setting": "Test System: E. COLI, Strain/Indicator: WP2 UVRA, Metabolic Activation: NONE, Method: PREINCUBATION", "result": "active; positive"}, {"measurement": "mutagenic call", "setting": "Test System: E. COLI, Strain/Indicator: WP2 UVRA, Metabolic Activation: RAT, LIVER, S-9, PHENOBARBITAL AND 5,6-BENZOFLAVONE, Method: PREINCUBATION", "result": "active; positive"}]}
{"smiles": "CC(=O)N=c1sn(C(C)=O)c2ccc([N+](=O)[O-])cc12", "values": [{"measurement": "mutagenic call", "setting": "[14]", "result": "active; positive"}]}
{"smiles": "Cc1c2c(c(C)c3c1ccc1ccccc13)[C@@H]1OC1[C@@H](O)[C@@H]2O", "note": "(stereo partly specified)", "values": [{"measurement": "mutagenic call", "setting": "Test System: CHINESE HAMSTER V-79, Strain/Indicator: V-79/OUABAIN, Metabolic Activation: CELL-MEDIATED, Method: STANDARD PLATE", "result": "active; positive"}]}
{"smiles": "CCOC(=O)CC(SP(=O)(OC)OC)C(=O)OCC", "note": "(stereo unspecified)", "values": [{"measurement": "mutagenic call", "setting": "End Point: IN VITRO CHROMOSOMAL ABERRATIONS, Test System: CHO CELLS, Metabolic Activation: NONE", "result": "inactive; negative"}, {"measurement": "mutagenic call", "setting": "[1]", "result": "inactive; negative"}, {"measurement": "mutagenic call", "setting": "[2]", "result": "inactive; negative"}, {"measurement": "mutagenic call", "setting": "[3]", "result": "inactive; negative"}, {"measurement": "mutagenic call", "setting": "[4]", "result": "inactive; negative"}, {"measurement": "mutagenic call", "setting": "[5]", "result": "inactive; negative"}, {"measurement": "mutagenic call", "setting": "[13]", "result": "inactive; negative"}, {"measurement": "mutagenic call", "setting": "[6]", "result": "inactive; negative"}, {"measurement": "mutagenic call", "setting": "Test System: AMES SALMONELLA TYPHIMURIUM, Strain/Indicator: TA98, Metabolic Activation: RAT, LIVER, S-9, Method: STANDARD PLATE", "result": "active; positive"}, {"measurement": "mutagenic call", "setting": "Test System: AMES SALMONELLA TYPHIMURIUM, Strain/Indicator: TA100, Metabolic Activation: HAMSTER, LIVER, S-9, AROCLOR 1254 (10 OR 30%), Method: PREINCUBATION", "result": "inactive; negative"}, {"measurement": "mutagenic call", "setting": "[7]", "result": "inactive; negative"}, {"measurement": "mutagenic call", "setting": "[12]", "result": "active; positive"}, {"measurement": "mutagenic call", "setting": "[8]", "result": "inactive; negative"}, {"measurement": "mutagenic call", "setting": "Test System: AMES SALMONELLA TYPHIMURIUM, Strain/Indicator: TA100, Metabolic Activation: RAT, LIVER, S-9, Method: STANDARD PLATE", "result": "inactive; negative"}, {"measurement": "mutagenic call", "setting": "[9]", "result": "inactive; negative"}, {"measurement": "mutagenic call", "setting": "[10]", "result": "inactive; negative"}, {"measurement": "mutagenic call", "setting": "[11]", "result": "inactive; negative"}]}
{"smiles": "CC(C)N(CC(O)COc1ccc(CC(N)=O)cc1)N=O", "note": "(stereo unspecified)", "values": [{"measurement": "mutagenic call", "setting": "Test System: UDS HUMAN HEPATOCYTES, Strain/Indicator: THY INCORP, Metabolic Activation: NONE, Method: AUTORADIOGRAPHY", "result": "active; positive"}, {"measurement": "mutagenic call", "setting": "Test System: UDS RAT HEPATOCYTES, Strain/Indicator: THY INCORP, Metabolic Activation: NONE, Method: AUTORADIOGRAPHY", "result": "active; positive"}]}
